Experimental data as given in patent publication US20240190871A1, “KRASG12D INHIBITOR, PREPARATION METHOD THEREFOR AND APPLICATION THEREOF” (YA THERAPEUTICS INC, priority 2021, published 2024).

System: ATCC CRL-1739 (KRASG^12D mutant) cells
Test: Tumor cell proliferation inhibition experiment (Cell Titer-Glo, 72 hours)
Assay type: cell-based
Settings: 72 hours incubation, 10% fetal bovine serum, ATP content
Method: The ATCC CRL-1739 (KRASG^12D mutant) cells were digested, centrifuged and resuspended, and the cell density was measured with a Scepter automatic cell counter. The cells were diluted to a solution containing 44,000 cells per milliliter, and the density-adjusted cell solution was 90 per well. Microliters were added to a 96-well culture plate. The 96-well plate was placed in a 37° C., 5% CO2 incubator. After the cells were cultured for 24 hours, different concentrations of the compounds to be tested were added. The cells were incubated with the compounds for 72 hours in the presence of 10% fetal bovine serum. Glo Luminescent Cell Viability Assay Kit (see manufacturer's instructions for details) was used to measure ATP content to assess cell growth inhibition. Briefly, 30 μl of Cell Titer-Glo reagent was added to each well, and the plate was shaken for 10 minutes to induce cell lysis. FluoroskanAscentFL (Thermo) assay records the […], and the maximum signal value is obtained from cells treated with DMSO for 72 hours. The minimum signal value was obtained from the medium alone (the number of cells was zero), and the % inhibition rate=(the maximum signal value compound signal value)/(the maximum signal value−the minimum signal value×100%, and the data were processed using Graphpadprism 5 software. By sigmoid Dose-response curve fitting to calculate IC50 value. “A” means IC50≤50 nM; “B” means 50<IC50≤500 nM; “C” means 500<IC50≤2000 nM; “D” means 2000<IC50

IC50 [nM]	Compound
> 2000	C[C@@H]1CNCCN1c1nc(OCCN(C)C)nc2nc(-c3c(O)cccc3F)c(F)cc12 [Compound 2, 2-(2-(2-(dimethylamino)ethoxy)-6-fluoro-4-((R)-2-methylpiperazin-1-yl)pyrido[2,3-d]pyrimidin-7-yl)-3-fluorophenol]
> 2000	C[C@@H]1CNCCN1c1nc(OC[C@@H]2CCCN2C)nc2nc(-c3ccccc3Cl)c(F)cc12 [Compound 32, 7-(2-chlorophenyl)-6-fluoro-4-((R)-2-methylpiperazin-1-yl)-2-(((S)-1-methylpyrrolidin-2-yl)methoxy)pyrido [2,3-d]pyrimidine]
> 2000	C[C@@H]1CNCCN1c1nc(OC[C@@H]2CCCN2C)nc2nc(-c3cccc4ccccc34)c(F)cc12 [Compound 35, 6-fluoro-4-((R)-2-methylpiperazin-1-yl)-2-(((S)-1-methylpyrrolidin-2-yl)methoxy)-7-(naphthalen-1-yl)pyrido[2,3-d]pyrimidine]
> 2000	C[C@@H]1CNCCN1c1nc(OC[C@@H]2CCCN2C)nc2nc(-c3ccc4ccccc4c3)c(F)cc12 [Compound 37, 6-fluoro-4-((R)-2-methylpiperazin-1-y1)-2-(((S)-1-methylpyrrolidin-2-yl)methoxy)-7-(naphthalen-2-yl)pyrido[2,3-d]pyrimidine]
> 2000	C[C@@H]1CNCCN1c1nc(OC[C@@H]2CCCN2C)nc2nc(-c3cccc4ccsc34)c(F)cc12 [Compound 38, 7-(benzo[b]thiophen-7-yl)-6-fluoro-4-((R)-2-methylpiperazin-1-y1)-2-(((S)-1-methylpyrrolidin-2-yl)methoxy)pyrido [2,3-d]pyrimidine]
> 2000	C[C@@H]1CNCCN1c1nc(OC[C@@H]2CCCN2C)nc2nc(-c3cccc4cccnc34)c(F)cc12 [Compound 39, 6-fluoro-4-((R)-2-methylpiperazin-1-yl)-2-(((S)-1-methylpyrrolidin-2-yl)methoxy)-7-(quinolin-8-yl)pyrido[2,3-d]pyrimidine]
> 2000	C[C@@H]1CNCCN1c1nc(OC[C@@H]2CCCN2C)nc2nc(-c3cccc4ccoc34)c(F)cc12 [Compound 40, 7-(benzofuran-7-yl)-6-fluoro-4-((R)-2-methylpiperazin-1-yl)-2-(((S)-1-methylpyrrolidin-2-yl)methoxy)pyrido [2,3-d]pyrimidine]
> 2000	C[C@@H]1CNCCN1c1nc(OC[C@@H]2CCCN2C)nc2nc(-c3cccc4c3ccn4C)c(F)cc12 [Compound 41, 6-fluoro-7-(1-methyl-1H-indol-4-yl)-4-((R)-2-methylpiperazin-1-yl)-2-(((S)-1-methylpyrrolidin-2-yl)methoxy)pyrido [2,3-d]pyrimidine]
> 2000	C[C@@H]1CNCCN1c1nc(OC[C@@H]2CCCN2C)nc2nc(-c3cccc4c3cnn4C)c(F)cc12 [Compound 42, 6-fluoro-7-(1-methyl-1H-indazol-4-yl)-4-((R)-2-methylpiperazin-1-yl)-2-(((S)-1-methylpyrrolidin-2-yl)methoxy)pyrido [2,3-d]pyrimidine]
500 to 2000	C[C@@H]1CNCCN1c1nc(OC[C@@H]2CCCN2C)nc2nc(-c3cccc4ccncc34)c(F)cc12 [Compound 43, 6-fluoro-7-(isoquinolin-8-y1)-4-((R)-2-methylpiperazin-1-y1)-2-(((S)-1-methylpyrrolidin-2-yl)methoxy)pyrido [2,3-d]pyrimidine]
500 to 2000	C[C@@H]1CNCCN1c1nc(OC[C@@H]2CCCN2C)nc2nc(-c3cccc4ncccc34)c(F)cc12 [Compound 44, 6-fluoro-4-((R)-2-methylpiperazin-1-y1)-2-(((S)-1-methylpyrrolidin-2-yl)methoxy)-7-(quinolin-5-yl)pyrido[2,3-d]pyrimidine]

Compound	IC50 [nM]
CN1CCC[C@H]1COc1nc(N2C3CNCC2C3)c2cc(F)c(-c3cc(O)cc4cccc(Cl)c34)nc2n1 [Compound 47, 4-(4-(3,6-diazabicyclo[3.1.1]heptan-6-yl)-6-fluoro-2-(((S)-1-methylpyrrolidin-2-yl)methoxy)pyrido [2,3-d]pyrimidin-7-yl)-5-chloronaphthalen-2-ol]	50 to 500
